Results taken from PMC4270692, “Using a Non-Image-Based Medium-Throughput Assay for Screening Compounds Targeting N-myristoylation in Intracellular Leishmania Amastigotes” (PLoS Neglected Tropical Diseases, 2014).
“Also recorded” adds a separate entry of the source. Where two headings read alike, the source gives them in different places.

Legend:
[1] = system: intracellular L. donovani amastigotes; experiment: Intracellular amastigote assay: infected macrophages treated 72 h, saponin lysis, transformation to promastigotes, Alamar blue; type: cell-based, Leishmania donovani; settings: for EC50: Leishmania donovani, Macrophage; for Effect on intracellular amastigotes at the highest concentration tested: 45 µM, after an "activity valley" at 15 µM
[2] = system: extracellular L. donovani amastigotes; experiment: Extracellular assay on amastigotes freshly isolated from mouse spleens, 72 h at 26°C, Alamar blue; type: cell-based, Leishmania donovani; settings: for EC50: Leishmania donovani; for Cellular (leishmanicidal) activity in words: extracellular assay
[3] = system: bone marrow derived macrophages
L. donovani NMT = L. donovani NMT (Leishmania donovani, UniProt D0AB09); experiment: biochemical; type: biochemical
Sequence of L. donovani NMT (D0AB09 1-421): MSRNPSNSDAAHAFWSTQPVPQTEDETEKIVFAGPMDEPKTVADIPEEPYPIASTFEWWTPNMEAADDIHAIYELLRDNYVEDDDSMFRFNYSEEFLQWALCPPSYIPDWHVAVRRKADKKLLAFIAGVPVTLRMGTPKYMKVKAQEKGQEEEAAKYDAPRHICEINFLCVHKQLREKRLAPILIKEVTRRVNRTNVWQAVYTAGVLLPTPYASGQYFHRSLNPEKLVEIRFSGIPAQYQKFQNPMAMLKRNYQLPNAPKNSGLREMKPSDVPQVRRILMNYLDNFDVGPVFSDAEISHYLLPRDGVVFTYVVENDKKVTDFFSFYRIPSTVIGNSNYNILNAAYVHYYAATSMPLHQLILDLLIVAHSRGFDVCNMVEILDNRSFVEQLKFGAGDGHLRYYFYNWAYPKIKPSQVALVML

[4] = 72 h, 3-day treatment of infected bone marrow derived macrophages, mean of biological repeats, read-out: EC50 ± SD intracellular L. donovani amastigotes
[5] = Figure 3, representative dose response curve, 72 h incubation, read-out: EC50 intracellular L. donovani amastigotes, representative plot
[6] = 72 h, 3-day treatment, splenic amastigotes from Rag2−/− mice, incubation at 26°C, read-out: EC50 ± SD extracellular L. donovani amastigotes
[7] = NMT inhibitors, 72 h in infected macrophages, n.p. = not possible
[8] = 72 h, read-out: EC50 extracellular L. donovani amastigotes
[9] = NMT inhibitors, 72 h at 26°C, read-out: EC50 extracellular L. donovani amastigotes

C[C@@H]1[C@H](O)[C@@H](C)/C=C/C=C/C=C/C=C/C=C/C=C/C=C/[C@H](O[C@@H]2O[C@H](C)[C@@H](O)[C@H](N)[C@@H]2O)C[C@@H]2O[C@](O)(C[C@@H](O)C[C@@H](O)[C@H](O)CC[C@@H](O)C[C@@H](O)CC(=O)O[C@H]1C)C[C@H](O)[C@H]2C(=O)O [Amphotericin B, amphotericin B]
EC50 [1, 4]: 30 ± 9 nM | EC50 [1, 5]: 29 nM | EC50 [2, 6]: 50 ± 11 nM

Cc1nn(C)c(C)c1NS(=O)(=O)c1c(Cl)cc(-c2ccnc(N3CCNCC3)c2)cc1Cl [DDD85646]
Effect on intracellular amastigotes at the highest concentration tested [1]: complete killing of the parasites; also recorded: all amastigotes cleared from the macrophages | EC50 intracellular L. donovani amastigotes [1, 7]: n.p. | EC50 [2, 8]: 8000 nM | LD50 bone marrow derived macrophages ([3]; 72 h): >45 µM

Cc1nn(C)c(C)c1NS(=O)(=O)c1c(Cl)cc(-c2ccnc(N3CCN(C)CC3)c2)cc1Cl [DDD86211]
Effect on intracellular amastigotes at the highest concentration tested [1]: complete killing of the parasites; also recorded: all amastigotes cleared from the macrophages | EC50 intracellular L. donovani amastigotes [1, 7]: n.p. | EC50 [2, 9]: 180 nM | LD50 bone marrow derived macrophages ([3]; female, BALB/c, mouse, 72 h): >45 µM

Cc1nn(C)c(C)c1N(C(F)F)[S+](=O)([O-])c1c(Cl)cc(-c2ccnc(N3CCNCC3)c2)cc1Cl [DDD100887]
EC50 ([1]; NMT inhibitors, 72 h in infected macrophages, n.p. = not possible, read-out: EC50 intracellular L. donovani amastigotes): 190 nM | EC50 [2, 9]: 660 nM | LD50 bone marrow derived macrophages ([3]; female, BALB/c, mouse, 72 h): 23 µM

CN1CCC(N(C)c2nc(N(C)CCC#N)c3sccc3n2)CC1 [IMP-0000083]
IC50 (L. donovani NMT): 281 nM | Fold less potent in inhibition of LdNMT than IMP-0000195 (L. donovani NMT; relative to IMP-0000195): ~4 fold | Activity in the intracellular assay (in words) [1]: no activity | EC50 [2, 9]: 24000 nM | Cellular (leishmanicidal) activity in words [2]: moderate cellular activity | Host cell toxicity (in words) [3]: no toxicity to host cells | LD50 bone marrow derived macrophages ([3]; 72 h): >45 µM | Concentration up to which no host cell cytotoxicity was seen ([3]; female, BALB/c, mouse, 72 h): at least 45 µM

N[C@@H](CC(=O)N1C[C@H](CO)[C@@H](c2ccc(Cl)cc2)C1)Cc1ccc(Cl)cc1 [IMP-0000195]
IC50 (L. donovani NMT; read-out: IC50 L. donovani NMT): 76.5 nM | EC50 [2, 9]: 12000 nM | LD50 bone marrow derived macrophages ([3]; female, BALB/c, mouse, 72 h): 12 µM | Host cell toxicity (in words) ([3]; macrophages): equally toxic to macrophages; also recorded: host cell toxicity and no selectivity

c1cncc(CCNCc2cccc(-c3cccc(CN4CCc5ncsc5C4)c3)c2)c1 [IMP-0000197]
Activity in the intracellular assay (in words) [1]: no activity | EC50 [2, 9]: 16000 nM | Cellular (leishmanicidal) activity in words [2]: moderate cellular activity | Concentration up to which no host cell cytotoxicity was seen [3]: at least 45 µM | LD50 bone marrow derived macrophages ([3]; female, BALB/c, mouse, 72 h): 50 µM

O=C(Cc1ccc(F)cc1)Nc1ccc2[nH]cc(C3CCNCC3)c2c1 [IMP-0000556]
EC50 [2, 8]: > 30000 nM | Cellular (leishmanicidal) activity in words [2]: did not result in any leishmanicidal activity | LD50 bone marrow derived macrophages ([3]; female, BALB/c, mouse, 72 h): >45 µM

CCCCCCCCCCCCCCCCOP(=O)([O-])OCC[N+](C)(C)C [Miltefosine, miltefosine]
EC50 [1, 4]: 1380 ± 60 nM | EC50 [1, 5]: 1450 nM | EC50 [2, 6]: 7850 ± 500 nM
